# Target: urease (from jack bean) (Canavalia ensiformis, UniProt P07374)
# Test: indophenol
# Format: biochemical
# Chain of urease (from jack bean) (P07374 whole entry, looked up): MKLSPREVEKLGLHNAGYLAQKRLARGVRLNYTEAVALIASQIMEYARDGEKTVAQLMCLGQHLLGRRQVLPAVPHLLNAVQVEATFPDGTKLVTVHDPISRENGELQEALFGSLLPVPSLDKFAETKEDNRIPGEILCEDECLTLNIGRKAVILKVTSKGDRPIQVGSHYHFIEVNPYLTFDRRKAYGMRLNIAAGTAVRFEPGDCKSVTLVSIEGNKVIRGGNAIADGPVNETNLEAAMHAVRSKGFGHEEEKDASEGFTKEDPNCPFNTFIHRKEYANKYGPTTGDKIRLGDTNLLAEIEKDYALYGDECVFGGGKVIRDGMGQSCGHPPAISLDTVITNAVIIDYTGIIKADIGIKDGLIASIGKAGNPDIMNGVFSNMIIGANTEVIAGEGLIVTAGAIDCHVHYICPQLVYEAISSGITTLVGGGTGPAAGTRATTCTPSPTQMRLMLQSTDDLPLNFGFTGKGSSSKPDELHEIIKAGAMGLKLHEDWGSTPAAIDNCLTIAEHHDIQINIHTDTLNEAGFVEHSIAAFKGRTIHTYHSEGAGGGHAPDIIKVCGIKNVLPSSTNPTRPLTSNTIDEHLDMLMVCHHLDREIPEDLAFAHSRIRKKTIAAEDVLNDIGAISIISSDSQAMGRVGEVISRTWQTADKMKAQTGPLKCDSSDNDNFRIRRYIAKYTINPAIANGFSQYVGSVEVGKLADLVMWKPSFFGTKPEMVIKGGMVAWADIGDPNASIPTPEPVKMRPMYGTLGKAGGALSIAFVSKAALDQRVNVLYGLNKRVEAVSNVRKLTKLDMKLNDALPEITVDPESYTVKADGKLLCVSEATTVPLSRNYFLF
row,Compound,IC50 [µM]
1,COc1ccc(/C=N/c2cc(Cl)cc(Cl)c2)cc1 [ASB2],184
2,"NC(N)=S [Thiourea, reference compound]",65.3
3,COc1ccc(/C=N/N=C/c2ccc(OC)cc2)cc1 [ASB1],38.4

# From PMC6529709 (Heliyon, 2019)
